Measurements as given in US5340815A, “2-substituted-4,6-di-tertiary-butyl-5-hydroxy-1,3-pyrimidines useful as antiinflammatory agents” (Warner-Lambert Company, priority 1993, dated 1994).

Experiments:
Cyclooxygenase = experiment: ARBC whole cell cyclooxygenase assay (PGF2α formation, RBL-1 cells); format: cell-based, rat; details: 10 μM
Description: (§1) ARBL/ARBC Whole Cell 5-Lipoxygenase and Cyclooxygenase Assays The rat basophilic leukemia cell line (RBL-1) was obtained from the American Type Culture Collection (Rockville, Md.). Radioimmunoassay (RIA) kits of LTB4 and PGF2α were obtained from Amersham (Arlington Heights, Ill.) and Seragen (Boston, Mass.), respectively. All tissue culture media were obtained from GIBCO (Grand Island, N.Y.). RBL-1 cells are grown in suspension culture in Eagle's minimum essential medium supplemented with 12% fetal bovine serum at 37° C. in an incubator supplied with air-5% carbon dioxide. Cells are harvested by centrifugation. They are washed with cold phosphate buffered saline pH 7.4 (PBS; NaCl, 7.1 g; Na2 HPO4, 1.15 g; KH2 PO4, 0.2 g; and KCl, 0.2 g/l). Cells are finally suspended in PBS containing 1.0 mM calcium at a density of 2×10^6 cells/mi. Cells are incubated with and without test agent (in DMSO) (1% DMSO is without effect on arachidonic acid metabolism) for ten minutes at room temperature. Calcium ionophore A23187 (5 μM) is added and cells are incubated for 7 minutes at 37° C. The reaction is stopped by chilling the tubes on ice for 10 minutes. Cells are separated by centrifugation and the supernatant is stored at -20° Aliquots (100 μL) are analyzed for LTB4 and PGF2α using radioimmunoassay kits as provided by the supplier. […]

[1] = test system: Carrageenan-Induced Rat Foot Paw Edema; experiment: Carrageenan-induced rat foot paw edema-2 (CFE-2) assay; format: in vivo; details: 30 mg/kg, methanesulfonate salt, dosed one hour before carrageenan; edema at five hours
Description: Carrageenan-Induced Rat Foot Paw Edema-2 (CFE-2) Assay: Protocol
Carrageenan solution (1% w/v) is prepared by dissolving 100 mg carrageenan (Marine Colloidal Div., Springfield, N.J.) in 10 mL of sterile saline (0.9%) solution (Travenol). The solution is vortexed for 30 to 45 minutes. Animals are dosed with compound one hour before carrageenan challenge. Foot paw edema is induced by injecting 0.10 ml of the 1% carrageenan subcutaneously into the plantar portion of the right hind paw of each rat under light anesthesia. Initial foot paw volume is measured immediately following carrageenan challenge using mercury plethysmography (Buxco Electronics). Edema is measured five hours after carrageenan. The difference between the five-hour and the initial paw volume is expressed as delta edema. The delta edema for each test group of animals is used to calculate the percent inhibition of edema achieved by-the compound at the test dose compared with the vehicle control group. The ID40 (the dose at which swelling is inhibited by 40%) is calculated by probit analysis for the dose at which 40 percent inhibition occurs.

5-Lipoxygenase = experiment: ARBL whole cell 5-lipoxygenase assay (LTB4 formation, RBL-1 cells); format: cell-based, rat; details: 10 μM
Description: as §1

## CC(C)(C)c1nc(/C=C/c2cccnc2)nc(C(C)(C)C)c1O [Example 1, [E]-4,6-Bis(1,1-dimethylethyl)-2-[[2-(3-pyridinyl)]-ethenyl]-5-pyrimidinol]
Cyclooxygenase
  ARBC, % inhibition (PGF2α formation): 85%
[1]
  % Inhibition of Edema: 45%
5-Lipoxygenase
  ARBL, % inhibition (LTB4 formation): 100%

## Cc1cc(C=Cc2nc(C(C)(C)C)c(O)c(C(C)(C)C)n2)sn1 [Example 3]
Cyclooxygenase
  ARBC, % inhibition (PGF2α formation): 60%
5-Lipoxygenase
  ARBL, inhibition class (LTB4 formation): N* (<40% inhibition at 10 μM)
